# Results from patent US7189691B2, “Methods and compositions for treating leukemia” (The Administrators of the Tulane Educational Fund, priority 2004, dated 2007).
# Molecular target: T1, AF4-AF9 interaction (Homo sapiens, UniProt P42568)
# T1 construct: made in house; host or cells: GST-AF4 from E. coli; AF9 by coupled in vitro transcription/translation (Promega)
# T1 sequence (P42568 211-568): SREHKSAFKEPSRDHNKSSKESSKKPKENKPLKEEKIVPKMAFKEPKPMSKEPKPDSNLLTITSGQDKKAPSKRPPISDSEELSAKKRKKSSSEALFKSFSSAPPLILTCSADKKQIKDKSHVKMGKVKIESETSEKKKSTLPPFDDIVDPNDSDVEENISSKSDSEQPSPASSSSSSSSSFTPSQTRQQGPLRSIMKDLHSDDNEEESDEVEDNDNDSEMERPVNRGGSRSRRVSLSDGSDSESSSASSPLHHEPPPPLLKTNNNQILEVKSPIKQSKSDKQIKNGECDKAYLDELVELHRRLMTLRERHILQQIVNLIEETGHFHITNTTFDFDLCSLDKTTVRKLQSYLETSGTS
# Test: GST pull-down assay, GST-AF4(749-775) and biotinylated AF9
# Type: binding
# Description: To determine if the synthetic peptide could disrupt the AF4-AF9 interaction in vitro, and to determine if the peptide disrupted other binding events with AF9, the following assay was performed. In additional to AF4, the carboxy-terminus of AF9 binds at least two other proteins, the Polycomb protein MPc3 and mBCoR, the mouse homolog of the human BCL-6 corepressor protein (Srinivasan 2003 and Hemenway 2001, both cited above). Using a yeast three hybrid assay similar to that described in Example 1, it was previously shown that mBCoR and FMR2 (an AF4 homolog) can simultaneously bind AF9. […] The sequences of human AF4 and AF9 and murine MPc3 and BCoR can be found in the NCBI database under Accession Nos. P51825, P42568, Q9QXV1, and AAN85318, respectively, incorporated by reference herein.
# Recombinant proteins consisting of glutathione-S-transferase (GST) fused to either (a) amino acids 749–775 of human AF4 SEQ ID NO: 107, (b) amino acids 202–362 of MPc3 SEQ ID NO: 108 or (c) amino acids 925–1759 of mBCoR SEQ ID NO: 109 were isolated from E. coli. These fusion proteins were immobilized on 50 μl glutathione agarose matrix. (i.e., glutathione Sepharose™ beads). Biotinylated AF9 was synthesized by coupled in vitro transcription and translation (Promega) of a Hind III restriction fragment of human AF9 cDNA. This fragment encodes the C-terminal 368 aa of AF9 SEQ ID NO: 114.
# Binding of biotinylated AF9 was performed as previously described (Srinivasan, R. S., et al., 2003, cited above; Hemenway, C. S., et al., Oncogene 2001 20: 3798–3805). Briefly, 25 μl of crude AF4 protein extract was immobilized on glutathione coated 96 well plates (Sigma) followed by extensive washing with TBS containing 0.05% Tween (TBST). […]
# After extensive washing with TBST, proteins were resolved by SDS-PAGE and transferred to nitrocellulose. […] Alkaline phosphatase activity was measured by determining the optical density of the samples at 405 nm with a plate spectrophotometer. […]
Compound,"AF4-AF9 binding (peptide 10 μg/ml, western blot)",AF4-AF9 binding (peptide 100 μg/ml)
CC[C@H](C)[C@H](NC(=O)[C@H](CCCCN)NC(=O)[C@@H](NC(=O)[C@H](Cc1c[nH]c2ccccc12)NC(=O)[C@H](CC(C)C)NC(=O)[C@H](CCCCN)NC(=O)[C@H](CCCCN)NC(=O)[C@H](Cc1c[nH]c2ccccc12)NC(=O)[C@H](CCCCN)NC(=O)[C@H](CCSC)NC(=O)[C@H](CCCNC(=N)N)NC(=O)[C@H](CCCNC(=N)N)NC(=O)[C@H](CC(N)=O)NC(=O)[C@H](CCC(N)=O)NC(=O)[C@H](Cc1ccccc1)NC(=O)[C@H](Cc1c[nH]c2ccccc12)NC(=O)[C@H](CCCCN)NC(=O)[C@@H](NC(=O)[C@H](CCC(N)=O)NC(=O)[C@@H](N)CCCNC(=N)N)[C@@H](C)CC)C(C)C)C(=O)N[C@@H](CC(=O)O)C(=O)N[C@@H](CC(C)C)C(=O)N[C@@H](CC(=O)O)C(=O)N[C@@H](CC(C)C)C(=O)N[C@@H](CC(C)C)C(=O)N[C@@H](CO)C(=O)N[C@@H](CCCNC(=N)N)C(=O)N[C@H](C(=O)N1CCC[C@H]1C(=O)O)C(C)C [PFWT],completely blocks AF4-AF9 binding,
CC[C@H](C)[C@H](NC(=O)[C@H](CCC(N)=O)NC(=O)[C@@H](N)CCCNC(=N)N)C(=O)N[C@@H](CCCCN)C(=O)N[C@@H](Cc1c[nH]c2ccccc12)C(=O)N[C@@H](Cc1ccccc1)C(=O)N[C@@H](CCC(N)=O)C(=O)N[C@@H](CC(N)=O)C(=O)N[C@@H](CCCNC(=N)N)C(=O)N[C@@H](CCCNC(=N)N)C(=O)N[C@@H](CCSC)C(=O)N[C@@H](CCCCN)C(=O)N[C@@H](Cc1c[nH]c2ccccc12)C(=O)N[C@@H](CCCCN)C(=O)N[C@@H](CCCCN)C(=O)N[C@@H](CC(C)C)C(=O)N[C@@H](Cc1c[nH]c2ccccc12)C(=O)N[C@@H](CCC(=O)O)C(=O)N[C@@H](CCCCN)C(=O)N[C@@H](CO)C(=O)N[C@@H](CC(=O)O)C(=O)N[C@@H](CC(C)C)C(=O)N[C@@H](CC(=O)O)C(=O)N[C@@H](CC(C)C)C(=O)N[C@@H](CC(C)C)C(=O)N[C@@H](CO)C(=O)N[C@@H](CCCNC(=N)N)C(=O)N[C@H](C(=O)N1CCC[C@H]1C(=O)O)C(C)C [PFmut],does not interfere with AF4-AF9 binding,binding was still apparent
